Data published in patent US20260335397A1, “TREATMENT OF GEOGRAPHIC ATROPHY” (Apellis Pharmaceuticals, Inc., priority 2022, published 2026).

Experiments:
[1] = test system: geographic atrophy (GA) secondary to age-related macular degeneration (AMD); assay: Post-hoc SD-OCT analysis of PR and RPE loss, OAKS and DERBY studies; type: in vivo, human; conditions: 12 months; for RPE loss, difference EM vs EOM / PR loss, difference EM vs EOM: monthly vs every other month; for PR loss, difference EM vs. Sham Pooled / RPE loss, difference EM vs. Sham Pooled: monthly
Excerpt: (§1) LS means estimated from MMRM analysis. The mITT population was used for the analysis, defined as all randomized patients who received at least 1 injection of pegcetacoplan or sham and had baseline and at least one post-baseline value of GA lesion area in the study eye. FOV=field of view; LS=least square; M=month; mITT=modified intent-to-treat; MMRM=mixed-effects model for repeated measures; PEOM=pegcetacoplan every other month; PM=pegcetacoplan monthly; PR=photoreceptor; RPE=retinal pigment epithelium; SE=standard error.
as §1, with “FOV-field” for “FOV=field”
Spectral-domain optical coherence tomography (OCT) allows for cross sectional visualization of the neurosensory retina, including the photoreceptor (PR) layer, as well as the retinal pigment epithelium (RPE) and other retinal structures. […] A post-hoc analysis that assessed the ability of pegcetacoplan treatment to reduce PR and RPE loss in patients with GA was performed using SD-OCT images acquired from a subgroup of patients in the OAKS and DERBY studies, namely those for whom Spectralis SD-OCT images were available. Automated, deep learning based segmentation of RPE loss and PR thickness on SD-OCT volumes acquired at baseline and months 2, 4, 6, 8, 10, and 12 was performed according to previously published methods. The difference in the change from baseline of RPE loss area and of PR loss area (determined based on PR thickness measurements) was compared among the monthly, every other month, and pooled sham treatment arms using LS Mean MMRM modeling. […] The magnitude of the treatment effects at 12 months, as determined using LS mean MMRM modeling, are summarized below.

[2] = test system: geographic atrophy (GA) secondary to age-related macular degeneration (AMD); assay: Post-hoc analysis of time to foveal light insensitivity, 4 central points of MAIA grid, OAKS study; type: in vivo, human
Protocol: This Example describes a post-hoc analysis of results from the OAKS study described in Example 1 that was performed in order to assess the effect of pegcetacoplan monthly (PM) or every other month (PEOM) vs sham treatment in delaying occurrence of foveal insensitivity measured by the 4 most centrally located stimulus points of the MAcular Integrity Assessment (MAIA) grid. Absolute scotomatous points of −1 dB were considered present when a reaction was not evoked by the brightest possible light stimulus.
Light insensitivity was defined as absence of response to −1 dB at the stimulus point. For the time-to-event analysis, a foveal light insensitivity event was defined as the first light insensitivity (−1 dB) occurring at all 4 central stimuli. Events were measured at the exact date of a patient visit and depicted via Kaplan-Meier plots. A Cox proportional hazards model was applied factoring treatment, choroidal neovascularisation in the fellow eye, baseline GA lesion area, and baseline number of central 4 scotomatous points (categorical). Hazard ratios (HRs) of PM and PEOM were estimated.

Poly(oxy-1,2-ethanediyl), α-hydro-ω-hydroxy-, 15,15′-diester with N-acetyl-L-isoleucyl-L-cysteinyl-L-valyl-1-methyl-L-tryptophyl-L-glutaminyl-L-α-aspartyl-L-tryptophylglycyl-L-alanyl-L-histidyl-L-arginyl-L-cysteinyl-L-threonyl-2-[2-(2-aminoethoxy)ethoxy]acetyl-N^6-carboxy-L-lysinamide cyclic (2->12)-(disulfide) [pegcetacoplan]
PR loss and RPE loss compared with sham ([1]; DERBY and OAKS, monthly and every other month): statistically significant reduction in PR loss and RPE loss at 12 months | PR loss, difference every other month vs. Sham pooled ([1]; DERBY, every other month, p<0.0001): −61.0% | RPE loss, difference every other month vs. Sham pooled ([1]; DERBY, every other month, p<0.0065): −20.4% | RPE loss, difference EM vs EOM ([1]; DERBY, p=0.0103): −19.6% | PR loss, difference EM vs EOM ([1]; DERBY, p=0.0785): −42% | PR loss, difference EM vs. Sham Pooled ([1]; DERBY, p<0.0001): −77.4% | RPE loss, difference EM vs. Sham Pooled ([1]; DERBY, p<0.0001): −36.0% | PR Loss, difference EOM vs. Sham pooled ([1]; OAKS, every other month, p<0.0001): −47.7% | RPE loss, difference every other month vs. Sham pooled ([1]; OAKS, every other month, p=0.0342): −14.8% | PR loss, difference EM vs EOM ([1]; OAKS, p=0.0049): −51.3% | RPE loss, difference EM vs EOM ([1]; OAKS, p=0.5282): −5.7% | PR loss, difference EM vs. Sham Pooled ([1]; OAKS, p<0.0001): −74.5% | RPE loss, difference EM vs. Sham Pooled ([1]; OAKS, p=0.0070): −19.7% | HR, occurrence of foveal light insensitivity vs sham ([2]; PEOM, 95% CI: 0.45, 0.92, p=0.0164): 0.64 | Conversion of all 4 central points to scotoma in the study eye, patients ([2]; PEOM, n=152, 24 months): 59 patients | Conversion of all 4 central points to scotoma in the study eye, percent of patients ([2]; PEOM, n=152, 24 months): 38.8% | onset of foveal light insensitivity / loss of foveal light sensitivity ([2]; PM and PEOM, twenty-four-month data): Meaningful delays in loss of foveal light sensitivity | HR, occurrence of foveal light insensitivity vs sham ([2]; PM, 95% CI: 0.46, 0.96, p=0.0282): 0.66 | Conversion of all 4 central points to scotoma in the study eye, patients ([2]; PM, n=155, 24 months): 54 patients | Conversion of all 4 central points to scotoma in the study eye, percent of patients ([2]; PM, n=155, 24 months): 34.8%
